The target of this assay is human plasma kallikrein (Homo sapiens (Human), UniProt P03952). In words: In vitro enzyme inhibition of human plasma kallikrein (PFR-AMC cleavage). Type of assay: biochemical. The conditions noted are these: Pro-Phe-Arg-AMC substrate, 37° C., read-out: hPK IC50. As to the method: The ability of the compounds disclosed herein to inhibit human plasma kallikrein activity was quantified according to the procedures below.
A 10 mM solution of the test compound was made in DMSO. […] A control tube containing only DMSO is included. 16 μL of each compound test solution was combined with 384 μL of assay buffer (50 mM Tris-HCl pH 7.5, 150 mM NaCl, 0.01% Triton X-100) to yield a “4× test compound buffer stock”.
These solutions are hereby referred to as 4×hPK and 2×PFR-AMC, respectively.
50 μL was removed from this mixture and placed into duplicate wells on a Microfluor 1Black U-bottom microtiter plate (Thermo Scientific). This plate was incubated for 5 minutes at 37° C. To each well, 50 μL of pre-warmed 2×PFR-AMC was added to start the enzymatic reaction. Cleavage of PFR-AMC was monitored in a Biotek Synergy H4 reader set at 37° C. Readings are taken every 43 seconds for 1 hour. […] The IC50 is calculated using the Gen5 (Biotek Instruments).
The ability of the compounds in Table 3 to inhibit human plasma kallikrein activity was determined.

pIC50: −log10 of the molar value.

Sequence of human plasma kallikrein (P03952 391-638 limits assumed): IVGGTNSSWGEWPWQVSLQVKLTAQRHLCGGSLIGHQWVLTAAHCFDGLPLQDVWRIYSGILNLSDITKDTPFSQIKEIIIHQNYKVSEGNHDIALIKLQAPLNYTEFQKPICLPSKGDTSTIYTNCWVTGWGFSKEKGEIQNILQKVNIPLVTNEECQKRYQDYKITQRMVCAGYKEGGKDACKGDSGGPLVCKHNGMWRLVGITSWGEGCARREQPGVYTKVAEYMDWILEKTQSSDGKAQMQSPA
Sequence of human plasma kallikrein (P03952 20-390 partner limits assumed): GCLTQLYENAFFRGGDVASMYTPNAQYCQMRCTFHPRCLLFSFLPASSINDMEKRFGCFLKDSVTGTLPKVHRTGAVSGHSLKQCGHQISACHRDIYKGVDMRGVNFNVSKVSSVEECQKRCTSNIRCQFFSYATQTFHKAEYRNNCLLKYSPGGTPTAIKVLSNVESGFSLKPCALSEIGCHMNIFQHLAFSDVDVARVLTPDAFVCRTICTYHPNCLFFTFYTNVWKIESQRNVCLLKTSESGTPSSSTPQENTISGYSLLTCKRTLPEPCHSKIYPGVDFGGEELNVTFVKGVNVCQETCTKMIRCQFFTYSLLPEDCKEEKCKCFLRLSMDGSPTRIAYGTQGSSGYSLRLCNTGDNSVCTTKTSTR

In general, pIC50 refers to the negative decadic logarithm of the IC50, by convention in mol/L. As for “N-((3-chloro-6-fluoro-1H-indol-5-yl)methyl)-2-((2-isocyanoquinolin-6-yl)methyl)isonicotinamide [Example 130]”, the pIC50 was more than 7.00.

The values are drawn from patent US10266515B2, “Therapeutic inhibitory compounds” (LifeSci Pharmaceuticals, Inc., priority 2013, dated 2019).
